The text below walks through data of patent publication US10570155B2, “Imidazooxazole derivative having antitumor effect, and pharmaceutical composition including same” (KOREA INSTITUTE OF SCIENCE AND TECHNOLOGY, priority 2016, dated 2020).

For one series, the system named is LOX IMVI. As to the kind of experiment: NCI cancer cell line panel screening (SRB), melanoma cell line LOX IMVI. In kind it is cell-based, human. The note with it: Homo sapiens, read-out: IC50 against melanoma cell line in vitro. As for the experimental part:
(§1) According to the standard protocol (http://dtp.nci.nih.gov/dtpstandard/dwindex/index.isp) of the US National Cancer Institute (NCI) (www.dtp.nci.nih.gov), screening of a cancer cell line panel was performed. […] For a general screening experiment, cells were inoculated in 96-well microtiter plates in 100 μl at a plating density ranging from 5000 cells/well to 40,000 cells/well depending on the doubling time of individual cell lines. After cell inoculation, the microtiter plates were incubated at 37° C., 5% CO2, 95% air, and 100% relative humidity for 24 hours prior to addition of test compounds. 24 hours later, two plates of each cell line were fixed in situ with trichloroacetic acid (TCA) to measure the cell population for each cell line at the time of test compound addition (Tz). Test compounds were solubilized in dimethyl sulfoxide at 400-fold the intended final maximum test concentration, and stored frozen prior to use. At the time of compound addition, an aliquot of frozen concentrate was thawed and diluted to twice the intended final maximum test concentration with a complete medium containing 50 μg/ml of gentamicin. Additional four concentration of 10-fold or ½ log serial dilutions were made to provide a total of five compound concentrations plus control. Aliquots of 100 μl of these different compound dilutions were added to appropriate microtiter wells already containing 100 μl of medium, resulting in the required final compound concentrations.
(§2) Following compound addition, the plates were incubated for additional 48 hours at 37° C., 5% CO2, 95% air, and 100% relative humidity. For adherent cells, the assay was terminated by the addition of cold TCA. Cells were fixed in situ by the gentle addition of 50 μl of cold 50% (w/v) TCA (final concentration, 10% TAC) and incubated at 4° C. for 60 minutes. The supernatant was discarded, and the plates were washed five times with tap water and air-dried. A sulforhodamine B (SRB) solution (100 μl) at 0.4% (w/v) in 1% acetic acid was added to each well, and plates were incubated at room temperature for 10 minutes. After staining, unbound dye was removed by washing five times with 1% acetic acid and the plates were air-dried. […] For suspension cells, the methodology was the same except that the assay was terminated by fixing settled cells at the bottom of the wells by gently adding 50 μl of 80% TCA (final concentration, 16% TCA). Using the seven absorbance measurements [time zero (Tz), control growth (C), and test growth rate in the presence of compound at the five concentration levels (Ti)], the growth percentage was calculated at each of the compound concentration levels. Growth inhibition percentage was calculated as follows: [(Ti−Tz)/(C−Tz)]×100 for concentrations for which Ti>/=Tz [(Ti−Tz)/Tz]×100 for concentrations for which Ti<Tz.

Another series deals with SK-MEL-28. As to the kind of experiment: NCI cancer cell line panel screening (SRB), melanoma cell line SK-MEL-28. In kind it is cell-based, human. The note with it: Homo sapiens, read-out: IC50 against melanoma cell line in vitro. The procedure:
as §1, §2

A further series concerns M14. As to the kind of experiment: NCI cancer cell line panel screening (SRB), melanoma cell line M14. It is filed as cell-based. Conditions: Homo sapiens, read-out: IC50 against melanoma cell line in vitro. The procedure:
(§3) According to the standard protocol (http://dtp.nci.nih.gov/dtpstandard/dwindex/index.isp) of the US National Cancer Institute (NCI) (www.dtp.nci.nih.gov), screening of a cancer cell line panel was performed. Briefly, human cell lines were allowed to grow in an RPMI 1640 medium containing 5% FBS and 2 mM L-glutamine. For a general screening experiment, cells were inoculated in 96-well microtiter plates in 100 μl at a plating density ranging from 5000 cells/well to 40,000 cells/well depending on the doubling time of individual cell lines. After cell inoculation, the microtiter plates were incubated at 37° C., 5% CO2, 95% air, and 100% relative humidity for 24 hours prior to addition of test compounds. 24 hours later, two plates of each cell line were fixed in situ with trichloroacetic acid (TCA) to measure the cell population for each cell line at the time of test compound addition (Tz). Test compounds were solubilized in dimethyl sulfoxide at 400-fold the intended final maximum test concentration, and stored frozen prior to use. At the time of compound addition, an aliquot of frozen concentrate was thawed and diluted to twice the intended final maximum test concentration with a complete medium containing 50 μg/ml of gentamicin. Additional four concentration of 10-fold or ½ log serial dilutions were made to provide a total of five compound concentrations plus control. Aliquots of 100 μl of these different compound dilutions were added to appropriate microtiter wells already containing 100 μl of medium, resulting in the required final compound concentrations.
(§4) Following compound addition, the plates were incubated for additional 48 hours at 37° C., 5% CO2, 95% air, and 100% relative humidity. For adherent cells, the assay was terminated by the addition of cold TCA. Cells were fixed in situ by the gentle addition of 50 μl of cold 50% (w/v) TCA (final concentration, 10% TAC) and incubated at 4° C. for 60 minutes. The supernatant was discarded, and the plates were washed five times with tap water and air-dried. A sulforhodamine B (SRB) solution (100 μl) at 0.4% (w/v) in 1% acetic acid was added to each well, and plates were incubated at room temperature for 10 minutes. After staining, unbound dye was removed by washing five times with 1% acetic acid and the plates were air-dried. Bound stain was subsequently solubilized with 10 mM Trizma base, and the absorbance was read on an automated plate reader at a wavelength of 515 nm. For suspension cells, the methodology was the same except that the assay was terminated by fixing settled cells at the bottom of the wells by gently adding 50 μl of 80% TCA (final concentration, 16% TCA). Using the seven absorbance measurements [time zero (Tz), control growth (C), and test growth rate in the presence of compound at the five concentration levels (Ti)], the growth percentage was calculated at each of the compound concentration levels. Growth inhibition percentage was calculated as follows: [(Ti−Tz)/(C−Tz)]×100 for concentrations for which Ti>/=Tz [(Ti−Tz)/Tz]×100 for concentrations for which Ti<Tz.

In a further series the test system is MDA-MB-435. As to the kind of experiment: NCI cancer cell line panel screening (SRB), melanoma cell line MDA-MB-435. The note with it: Homo sapiens, read-out: IC50 against melanoma cell line in vitro. In kind it is cell-based. The procedure:
as §3, §4

In series [1] the test system is A375P cell line xenograft. As to the kind of experiment: Tumor-inhibitory effects in melanoma mouse xenograft model. It is filed as in vivo, nude mice. Also noted: Tumor size: unit not given here. As for the experimental part: In this experiment, A375P cell line which is a human-derived malignant melanoma cell line was subcutaneously administered to nude mice to prepare xenograft models, and the test material (compound 2II) was administered to the xenograft models to evaluate anti-cancer effects (GI: an excipient control group, G2: a group administered with 20 mg/kg/day of the test material, and G3: a group administered with 50 mg/kg/day of the test material).

Another series concerns SK-MEL-5. Kind of series: NCI cancer cell line panel screening (SRB), melanoma cell line SK-MEL-5. It is filed as cell-based, human. Conditions: Homo sapiens, read-out: IC50 against melanoma cell line in vitro. As for the experimental part:
as §1, §2

[2] abbreviates: 20 and 50 mg/kg/day, intravenous, twice per week for 3 weeks.

Molecules are shown by their SMILES.

For orientation: IC50 means the concentration that gives 50% inhibition. For `CCN1CCN(CCNc2nccc(-c3c(-c4cccc(O)c4)nc4occn34)n2)S1(=O)=O` [2II, 2-Ethyl-5-(2-((4-(6-(3-hydroxylphenyl)imidazo[2,1-b]oxazol-5-yl)pyrimidin-2-yl)amino)ethyl)-1,2,5-thiadiazolidine 1,1-dioxide], the IC50 with LOX IMVI came to 2530 nM; in the series on SK-MEL-28, 130 nM; in the series on M14, 140 nM; with MDA-MB-435, 370 nM; in the series with SK-MEL-5, 6280 nM. The “General symptoms and deaths” value in series [1] (setting [2]) is “no deaths or no abnormalities in general symptoms were observed”. Also, the “Increase of the tumor size” value in series [1] (setting [2]) is “inhibited in a dose-dependent manner”. For the same molecule, in series [1] (G1, G2 (20 mg/kg/day), G3 (50 mg/kg/day)), the “Tumor size, difference between experimental groups” value is recorded as “no significant difference between all experimental groups”. Also, the Tumor size was 145.08 ± 20.85 in series [1] (G2, 20 mg/kg/day, day 0); 271.88 ± 60.05 in series [1] (G2, 20 mg/kg/day, day 4); 556.42 ± 161.21 in series [1] (G2, 20 mg/kg/day, day 7); 978.91 ± 258.24 in series [1] (G2, 20 mg/kg/day, day 11); 1711.5 ± 631.79 in series [1] (G2, 20 mg/kg/day, day 14); 2438.5 ± 962.99 in series [1] (G2, 20 mg/kg/day, day 18). The Tumor size in series [1] (G2, 20 mg/kg/day, day 21) turned out to be 3200.6 ± 944.99; in series [1] (G3, 50 mg/kg/day, day 0) it was 149.36 ± 20.91; in series [1] (G3, 50 mg/kg/day, day 4), 276.08 ± 86.17; in series [1] (G3, 50 mg/kg/day, day 7) it was 442.88 ± 73.08; in series [1] (G3, 50 mg/kg/day, day 11) it was 754.16 ± 211.86; in series [1] (G3, 50 mg/kg/day, day 14) it was 1174.7 ± 411.22. The Tumor size is on record as 1543.9 ± 411.21 in series [1] (G3, 50 mg/kg/day, day 18) and 2063.1 ± 657.93 in series [1] (G3, 50 mg/kg/day, day 21). Moreover, in series [1] (G3, 50 mg/kg/day), the “Body weight gain compared with excipient control group” value was “significantly low”. The “Body weight compared with control group (G1)” value in series [1] (G3, 50 mg/kg/day, at 14 days and 21 days after administration) is “significantly low”.
